One assay deals with T1, c-Kit (Homo sapiens, UniProt P10721).
T1 construct: purchased invitrogen PV3081
Briefly: Inhibition of receptor tyrosine kinases activity assay. The assay is classed as biochemical.

Another assay concerns the target T2, PDGFRβ (Homo sapiens, UniProt P09619).
T2 construct: purchased invitrogen PV3082
Described as above. The assay is classed as biochemical.

Another assay concerns the target T3, Flt1 (Homo sapiens, UniProt P17948).
T3 construct: purchased invitrogen PV3666
Described as above. The assay is classed as biochemical.

For the next assay, the target named is T4, Ret (Homo sapiens, UniProt P07949).
T4 construct: purchased invitrogen PV3819
T4 sequence (P07949 29-1114): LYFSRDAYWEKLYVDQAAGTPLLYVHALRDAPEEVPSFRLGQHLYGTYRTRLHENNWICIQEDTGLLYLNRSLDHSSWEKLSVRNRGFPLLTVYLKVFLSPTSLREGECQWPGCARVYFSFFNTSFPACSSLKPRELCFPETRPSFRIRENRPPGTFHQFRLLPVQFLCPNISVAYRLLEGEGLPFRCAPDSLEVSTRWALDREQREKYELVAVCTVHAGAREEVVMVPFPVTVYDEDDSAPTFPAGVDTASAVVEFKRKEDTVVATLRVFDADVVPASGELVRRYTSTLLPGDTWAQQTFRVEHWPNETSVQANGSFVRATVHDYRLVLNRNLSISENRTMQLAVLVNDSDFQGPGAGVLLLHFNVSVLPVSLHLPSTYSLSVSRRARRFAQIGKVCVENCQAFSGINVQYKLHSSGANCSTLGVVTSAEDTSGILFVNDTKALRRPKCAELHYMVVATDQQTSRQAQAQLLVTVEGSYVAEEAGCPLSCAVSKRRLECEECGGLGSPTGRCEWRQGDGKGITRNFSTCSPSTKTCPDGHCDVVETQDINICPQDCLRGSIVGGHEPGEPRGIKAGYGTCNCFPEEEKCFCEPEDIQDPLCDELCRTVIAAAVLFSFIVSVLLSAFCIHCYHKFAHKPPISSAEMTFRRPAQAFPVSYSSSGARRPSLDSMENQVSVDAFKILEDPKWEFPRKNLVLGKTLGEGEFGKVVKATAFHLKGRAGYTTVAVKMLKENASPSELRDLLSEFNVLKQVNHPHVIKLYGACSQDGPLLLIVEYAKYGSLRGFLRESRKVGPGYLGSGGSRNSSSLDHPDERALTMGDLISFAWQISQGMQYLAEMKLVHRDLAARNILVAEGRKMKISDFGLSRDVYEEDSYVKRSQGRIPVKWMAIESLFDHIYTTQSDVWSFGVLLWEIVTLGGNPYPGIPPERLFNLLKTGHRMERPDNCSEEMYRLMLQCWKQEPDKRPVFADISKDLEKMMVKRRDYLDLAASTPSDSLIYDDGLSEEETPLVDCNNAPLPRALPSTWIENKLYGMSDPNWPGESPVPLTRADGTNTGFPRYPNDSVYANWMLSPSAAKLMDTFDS
Described as above. The assay is classed as biochemical.

The target of the next assay is T5, Flt3 (Homo sapiens, UniProt P36888).
T5 construct: purchased invitrogen PV3182
T5 sequence (P36888 27-993): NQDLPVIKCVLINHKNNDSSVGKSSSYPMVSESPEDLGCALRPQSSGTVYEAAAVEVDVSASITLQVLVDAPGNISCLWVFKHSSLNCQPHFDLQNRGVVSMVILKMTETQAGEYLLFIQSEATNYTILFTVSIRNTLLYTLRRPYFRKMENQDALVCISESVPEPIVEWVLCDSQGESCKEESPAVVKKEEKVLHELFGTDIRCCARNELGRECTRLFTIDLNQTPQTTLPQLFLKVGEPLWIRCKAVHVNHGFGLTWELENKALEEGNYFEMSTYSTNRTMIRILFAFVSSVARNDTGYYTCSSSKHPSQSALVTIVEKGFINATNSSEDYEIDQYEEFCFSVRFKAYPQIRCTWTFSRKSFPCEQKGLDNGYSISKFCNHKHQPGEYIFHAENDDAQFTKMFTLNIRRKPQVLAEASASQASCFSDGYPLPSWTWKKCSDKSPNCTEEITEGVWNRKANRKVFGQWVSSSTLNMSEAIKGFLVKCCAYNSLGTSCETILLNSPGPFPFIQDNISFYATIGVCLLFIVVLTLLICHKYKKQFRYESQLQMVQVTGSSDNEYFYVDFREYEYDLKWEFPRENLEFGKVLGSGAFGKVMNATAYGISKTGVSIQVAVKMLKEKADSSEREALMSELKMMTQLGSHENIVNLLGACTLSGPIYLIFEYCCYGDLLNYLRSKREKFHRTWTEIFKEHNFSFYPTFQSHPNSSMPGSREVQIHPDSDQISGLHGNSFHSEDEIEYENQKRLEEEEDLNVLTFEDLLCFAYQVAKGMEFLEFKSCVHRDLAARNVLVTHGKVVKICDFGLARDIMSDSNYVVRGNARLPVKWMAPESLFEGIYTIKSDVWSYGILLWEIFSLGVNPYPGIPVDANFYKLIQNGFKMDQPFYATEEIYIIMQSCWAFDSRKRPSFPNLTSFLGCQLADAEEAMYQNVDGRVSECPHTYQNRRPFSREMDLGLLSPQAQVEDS
The description is as above. The assay is classed as biochemical.

In assay [1] the test system is HUVEC (human umbilical vein endothelial cells). In words: Inhibition of cancer cell proliferation assay (SRB). The assay is classed as cell-based. Conditions: mean ± SD, 72 hours. The text has this:
The cellular assay described here is to test the proliferation inhibition activity of the compound of Example 53 on the cancer cells in vitro using Sulforhodamine B (SRB) method. The cancer cells include HUVEC (human umbilical vein endothelial cells), HT-29 (human colon cancer cells), Mo7e (human megakaryoblastic leukemia cell line), A431 (human epidermoid carcinoma cells), NCI—H526 (small-cell lung cancer cells), and SK—BR-3 (human breast cancer cells).
HUVEC cancer cell: American Type Culture Collection, Cat. No. CRL-1730
The following in vitro assay is to determine the activity of the tested compound for inhibiting the proliferation of the cancer cells mentioned above. The activity is represented by the IC50 value. The general procedures of the assay are given as follows: Cancer cells mentioned above were chosen and seeded to 96-well cell culture plate at a suitable concentration (e.g., 5000 cells/mL medium). These cells then were incubated in carbon dioxide (CO2) incubator until they reached 85% confluency. […] 72 hours later, the activity of the tested compound for inhibiting the cell proliferation was determined by using Sulforhodamine B (SRB) method. IC50 value on tested cells is calculated by the data of inhibition rates of serial concentrations of the tested compound.

The test system of assay [2] is A431 (human epidermoid carcinoma cells). Described as above. Particulars: A-431, 72 h, read-out: IC50 A431. The assay is classed as cell-based. An excerpt:
(§1) The cancer cells include HUVEC (human umbilical vein endothelial cells), HT-29 (human colon cancer cells), Mo7e (human megakaryoblastic leukemia cell line), A431 (human epidermoid carcinoma cells), NCI—H526 (small-cell lung cancer cells), and SK—BR-3 (human breast cancer cells).
(§2) The following in vitro assay is to determine the activity of the tested compound for inhibiting the proliferation of the cancer cells mentioned above. The activity is represented by the IC50 value. The general procedures of the assay are given as follows: Cancer cells mentioned above were chosen and seeded to 96-well cell culture plate at a suitable concentration (e.g., 5000 cells/mL medium). […] Then, the cell culture medium was replaced by fresh one with tested compound added in it at serial concentrations (general 6 to 7 concentrations). Then the cells were put back to the incubator and cultured continuously. 72 hours later, the activity of the tested compound for inhibiting the cell proliferation was determined by using Sulforhodamine B (SRB) method. IC50 value on tested cells is calculated by the data of inhibition rates of serial concentrations of the tested compound.

In assay [3] the test system is NCI—H526 (small-cell lung cancer cells). The assay is described as above. The assay is classed as cell-based. Conditions: Homo sapiens, NCI-H526, 72 h, read-out: IC50 NCI-H526.
Description: as §1, §2

Assay [4] has as its system NCI—H460 (non-small cell lung cancer). Briefly: Anticancer pharmacodynamic assay in vivo, xenograft. Also on record: species or system nude mice. Particulars: for T/C (%): relative tumor volume (%): NCI-H460 xenograft, d0-13, P < 0.01 vs Control. An excerpt:
The test method and steps are the same with those disclosed in “PHARMACODYNAMIC ASSAYS IN VIVO” of the present invention. The therapeutic effects of the compound of Example 53 against xenografts of colon cancer, non-small cell lung cancer, liver cancer, melanoma, renal cancer in nude mice are estimated.
NCI—H460 (non-small cell lung cancer): Cell Bank, Chinese Academy of Sciences, TCHu205;
Nude mice were hypodermic inoculated HT-29 human colon cancer cell. After tumors grew to 100-300 mm^3, mice were randomly divided into teams (d0). The volume of tumors and weigh of the mice were measured for 2-3 times per week. The calculation formula of the volume of tumor (V) is: V=½×a×b^2, a: length of tumor, b: width of tumor.

Where [5] appears, read: mean ± SD, 20 μM ATP, 25° C., 45 minutes.

Each structure is given as a SMILES string. Marks after values point to notes of the source that are not given here.

T2 sequence (P09619 33-1106): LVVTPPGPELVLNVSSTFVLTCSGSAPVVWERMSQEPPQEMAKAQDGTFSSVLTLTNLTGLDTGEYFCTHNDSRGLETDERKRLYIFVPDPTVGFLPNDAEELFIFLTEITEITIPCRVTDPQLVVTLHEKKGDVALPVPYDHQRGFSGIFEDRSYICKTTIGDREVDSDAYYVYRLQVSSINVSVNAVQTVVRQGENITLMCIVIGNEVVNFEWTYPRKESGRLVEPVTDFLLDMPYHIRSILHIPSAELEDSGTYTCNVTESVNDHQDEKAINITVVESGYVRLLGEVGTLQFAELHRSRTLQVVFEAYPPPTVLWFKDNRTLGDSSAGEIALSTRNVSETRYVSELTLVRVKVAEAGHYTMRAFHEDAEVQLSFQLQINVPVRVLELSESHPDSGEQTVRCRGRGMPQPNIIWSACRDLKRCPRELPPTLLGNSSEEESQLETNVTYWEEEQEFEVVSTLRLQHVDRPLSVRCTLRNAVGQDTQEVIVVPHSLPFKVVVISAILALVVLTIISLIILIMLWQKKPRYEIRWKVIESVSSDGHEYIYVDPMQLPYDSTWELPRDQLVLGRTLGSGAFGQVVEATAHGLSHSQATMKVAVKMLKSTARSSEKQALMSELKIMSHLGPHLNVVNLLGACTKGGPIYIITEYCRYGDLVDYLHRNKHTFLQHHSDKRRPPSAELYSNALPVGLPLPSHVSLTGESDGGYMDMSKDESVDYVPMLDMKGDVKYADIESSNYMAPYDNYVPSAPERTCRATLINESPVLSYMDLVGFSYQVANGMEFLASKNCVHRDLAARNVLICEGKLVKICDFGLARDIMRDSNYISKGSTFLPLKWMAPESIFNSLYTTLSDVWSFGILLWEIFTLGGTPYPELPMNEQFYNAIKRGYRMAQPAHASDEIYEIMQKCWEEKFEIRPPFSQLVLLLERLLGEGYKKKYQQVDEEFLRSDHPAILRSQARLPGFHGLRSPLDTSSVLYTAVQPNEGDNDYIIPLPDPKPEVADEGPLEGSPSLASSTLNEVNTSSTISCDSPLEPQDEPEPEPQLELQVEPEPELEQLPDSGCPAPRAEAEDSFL
T1 sequence (P10721 26-976): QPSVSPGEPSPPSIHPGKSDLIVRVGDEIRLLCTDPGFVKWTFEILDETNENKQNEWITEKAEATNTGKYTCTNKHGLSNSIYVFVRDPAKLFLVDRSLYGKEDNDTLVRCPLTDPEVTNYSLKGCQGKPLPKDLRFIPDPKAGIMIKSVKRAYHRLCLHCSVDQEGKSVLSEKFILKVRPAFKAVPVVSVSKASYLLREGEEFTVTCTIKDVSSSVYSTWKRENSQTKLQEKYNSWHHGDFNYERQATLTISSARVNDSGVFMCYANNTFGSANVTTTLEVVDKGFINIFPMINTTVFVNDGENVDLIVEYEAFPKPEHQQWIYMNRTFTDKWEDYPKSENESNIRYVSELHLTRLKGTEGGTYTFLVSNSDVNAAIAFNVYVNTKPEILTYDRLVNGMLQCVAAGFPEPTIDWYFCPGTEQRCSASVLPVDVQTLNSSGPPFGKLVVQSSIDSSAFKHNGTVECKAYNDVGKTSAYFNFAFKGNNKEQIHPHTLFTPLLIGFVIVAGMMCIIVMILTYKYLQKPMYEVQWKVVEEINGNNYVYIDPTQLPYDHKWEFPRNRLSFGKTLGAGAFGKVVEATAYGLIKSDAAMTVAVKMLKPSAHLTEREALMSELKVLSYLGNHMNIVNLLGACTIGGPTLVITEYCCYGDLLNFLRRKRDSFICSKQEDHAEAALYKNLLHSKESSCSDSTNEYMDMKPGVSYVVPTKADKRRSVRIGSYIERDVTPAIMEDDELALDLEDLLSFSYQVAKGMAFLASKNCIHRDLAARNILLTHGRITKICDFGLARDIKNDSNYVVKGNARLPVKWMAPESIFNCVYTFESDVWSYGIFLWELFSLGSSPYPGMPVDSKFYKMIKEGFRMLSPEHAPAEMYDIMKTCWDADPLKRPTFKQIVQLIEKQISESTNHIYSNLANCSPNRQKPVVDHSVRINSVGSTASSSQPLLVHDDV
T3 sequence (P17948 27-1338): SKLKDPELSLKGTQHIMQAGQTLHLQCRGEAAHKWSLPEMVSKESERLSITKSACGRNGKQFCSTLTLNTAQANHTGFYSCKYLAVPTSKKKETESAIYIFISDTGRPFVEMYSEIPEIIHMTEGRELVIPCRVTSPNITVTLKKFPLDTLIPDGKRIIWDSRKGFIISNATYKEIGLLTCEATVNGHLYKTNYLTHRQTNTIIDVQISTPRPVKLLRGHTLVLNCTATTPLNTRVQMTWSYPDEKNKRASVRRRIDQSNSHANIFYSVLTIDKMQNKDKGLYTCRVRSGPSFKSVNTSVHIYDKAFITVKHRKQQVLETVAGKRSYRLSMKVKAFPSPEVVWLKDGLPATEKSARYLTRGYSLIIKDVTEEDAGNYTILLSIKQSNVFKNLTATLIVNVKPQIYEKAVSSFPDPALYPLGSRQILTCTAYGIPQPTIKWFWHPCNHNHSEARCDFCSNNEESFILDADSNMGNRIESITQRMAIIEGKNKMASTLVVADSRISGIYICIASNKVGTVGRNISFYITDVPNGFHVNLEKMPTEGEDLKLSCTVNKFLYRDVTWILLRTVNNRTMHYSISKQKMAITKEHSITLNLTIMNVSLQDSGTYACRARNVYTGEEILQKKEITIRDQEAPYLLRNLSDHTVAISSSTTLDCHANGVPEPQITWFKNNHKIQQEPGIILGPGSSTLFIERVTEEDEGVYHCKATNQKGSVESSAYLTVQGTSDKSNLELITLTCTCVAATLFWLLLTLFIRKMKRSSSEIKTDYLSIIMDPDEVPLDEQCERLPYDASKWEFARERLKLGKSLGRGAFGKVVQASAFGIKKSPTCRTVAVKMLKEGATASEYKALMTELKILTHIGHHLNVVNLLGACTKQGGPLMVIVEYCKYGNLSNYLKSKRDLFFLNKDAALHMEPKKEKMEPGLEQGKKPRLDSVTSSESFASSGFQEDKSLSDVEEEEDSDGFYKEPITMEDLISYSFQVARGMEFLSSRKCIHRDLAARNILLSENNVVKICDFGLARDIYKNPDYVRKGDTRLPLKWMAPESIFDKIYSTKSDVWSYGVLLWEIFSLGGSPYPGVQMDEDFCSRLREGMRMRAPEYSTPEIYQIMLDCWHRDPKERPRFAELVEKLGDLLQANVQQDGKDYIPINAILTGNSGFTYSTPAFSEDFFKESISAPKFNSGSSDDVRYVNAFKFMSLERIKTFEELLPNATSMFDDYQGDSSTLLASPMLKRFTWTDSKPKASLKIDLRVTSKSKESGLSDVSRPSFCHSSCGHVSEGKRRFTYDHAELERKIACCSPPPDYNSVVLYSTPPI

As to `Cc1c(/C=C2\C(=O)Nc3ccc(F)cc32)[nH]c2c1C(=O)N(C[C@H](O)CN1CCOCC1)CCC2` [Example 53, (R,Z)-2-(5-Fluoro-2-oxo-1,2-dihydro-indol-3-ylidenemethyl)-5-(2-hydroxy-3-morpholin-4-yl-propyl)-3-methyl-5,6,7,8-tetrahydro-1H-pyrrolo[3,2-c]azepin-4-one], the “inhibition of kinase activity (in words)” value against c-Kit (c-Kit), against PDGFRβ (PDGFRβ), at Flt1 (Flt1), against Ret (Ret) and against Flt3 (Flt3) was “obvious activity” in each case. Moreover, the IC50 against c-Kit (setting [5]) stood at 3.3 ± 3.6 nM; at PDGFRβ (setting [5]) it was 41.5 ± 22.7 nM; against Flt1 (setting [5]), 30.9 ± 5.7 nM; against Ret (setting [5]), 182 ± 6.4 nM; against Flt3 (setting [5]) it was 19.3 ± 3.1 nM; in assay [1], 1100 nM. For the same compound, the IC50 in assay [2] was found to be 2000 ± 500 nM; in assay [3] it was 8300 ± 300 nM. Also, the “T/C (%): relative tumor volume (%)” value is reported as 41.1* % in assay [4] (15 mg/kg p.o), 46.3* % in [4] (30 mg/kg p.o) and 58.4* % in assay [4] (60 mg/kg p.o). Also, the “anticancer activity against xenograft (in words)” value in assay [4] (NCI—H460 xenograft in nude mice) is recorded as “obvious anticancer activity”.
